In brackets after ≈: the same amount, converted by molar mass.
Assays:
Staphylococcus aureus [1] = assay: Antimicrobial activity against methicillin-susceptible Staphylococcus aureus ATCC 29213 after 16 to 20 hrs by microdilution method; type: functional
Staphylococcus aureus [2] = assay: Antimicrobial activity against methicillin-resistant Staphylococcus aureus ATCC 43300 after 16 to 20 hrs by microdilution method; type: functional

`O=C(NC[C@H]1CN(c2ccc(N3CCOCC3)c(F)c2)C(=O)O1)Nc1ccccc1` was tested. Which MIC (Staphylococcus aureus [1]) did it give?
The MIC was greater than 100 µg/mL.

For `COc1ccc(NC(=O)NC[C@H]2CN(c3ccc(N4CCOCC4)c(F)c3)C(=O)O2)cc1`, which MIC (Staphylococcus aureus [1]) is on record?
The MIC was greater than 100 µg/mL.

`O=C(NC[C@H]1CN(c2ccc(N3CCOCC3)c(F)c2)C(=O)O1)Nc1ccc([N+](=O)[O-])cc1` was tested. Which MIC (Staphylococcus aureus [1]) did it give?
Its MIC is greater than 100 µg/mL.

`COc1ccc(NC(=S)NC[C@H]2CN(c3ccc(N4CCOCC4)c(F)c3)C(=O)O2)cc1` was tested. Which MIC (Staphylococcus aureus [1]) did it give?
The MIC was greater than 100 µg/mL.

For `O=C1O[C@@H](CNC(=S)Nc2ccccc2)CN1c1ccc(N2CCOCC2)c(F)c1`, which MIC (Staphylococcus aureus [1]) is on record?
The MIC was 10 µg/mL (≈ 23.2 µM).

`O=C1O[C@@H](CNC(=S)Nc2ccc([N+](=O)[O-])cc2)CN1c1ccc(N2CCOCC2)c(F)c1` was tested. Which MIC (Staphylococcus aureus [2]) did it give?
The MIC was 1 µg/mL (≈ 2.1 µM).

And the MIC (Staphylococcus aureus [1])?
The MIC was 2 µg/mL (≈ 4.21 µM).

`CC(=O)NC[C@H]1CN(c2ccc(N3CCOCC3)c(F)c2)C(=O)O1` [LINEZOLID] was tested. Which MIC (Staphylococcus aureus [2]) did it give?
Its MIC is 1 µg/mL (≈ 2.96 µM).

And the MIC (Staphylococcus aureus [1])?
The MIC was 1 µg/mL (≈ 2.96 µM).
